Reference: US6376426B1, “Herbicidal 3-(heterocycl-1-yl)-uracils” (BASF Aktiengesellschaft, priority 1999, dated 2002)

Experiments:
Type in all cases: in vivo
Galium aparine = assay: Post-emergence herbicidal test, GALAP; parameters: key to herbicidal effect (0-9 scale) GALAP / herbicidal rating GALAP: A rating 0 indicates growth as untreated control; a rating 9 indicates death; conditions: for herbicidal rating GALAP: POST, 0-9 scale, 21 days after spraying
Summary of the method: (§1)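 Herbicidal effect is recorded on a linear 0-9 scale, where 0 means growth like untreated control and 9 means death, with one unit approximating 10% more effect.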

Echinochloa crus-galli [1] = assay: Pre-emergence herbicidal test, ECHCG; parameters: key: A rating 0 indicates growth as untreated control; a rating 9 indicates death; conditions: 0-9 scale, 21 days after spraying
Matricaria inodora [2] = assay: Post-emergence herbicidal test, MATIN; parameters: key to herbicidal effect (0-9 scale) MATIN / herbicidal rating MATIN: A rating 0 indicates growth as untreated control; a rating 9 indicates death; conditions: for herbicidal rating MATIN: POST, 0-9 scale, 21 days after spraying
Summary of the method: as §1

Matricaria inodora [3] = assay: Pre-emergence herbicidal test, MATIN; parameters: key to herbicidal effect (0-9 scale) MATIN / herbicidal rating MATIN: A rating 0 indicates growth as untreated control; a rating 9 indicates death; conditions: for herbicidal rating MATIN: PRE, 0-9 scale, 21 days after spraying
Echinochloa crus-galli [4] = assay: Post-emergence herbicidal test, ECHCG; parameters: key: A rating 0 indicates growth as untreated control; a rating 9 indicates death; conditions: 0-9 scale, 21 days after spraying
Summary of the method: as §1

Stellaria media = assay: Pre-emergence herbicidal test, STEME; parameters: key to herbicidal effect (0-9 scale) STEME / herbicidal rating STEME: A rating 0 indicates growth as untreated control; a rating 9 indicates death; conditions: for herbicidal rating STEME: PRE, 0-9 scale, 21 days after spraying

Cn1c(C(F)(F)F)cc(=O)n(-n2ccc3c(Cl)cccc32)c1=O [Example 169, 3-(4-Chloro-indol-1-yl)-1-methyl-6-trifluoromethylpyrimidine-2,4-dione]
herbicidal rating GALAP (Galium aparine; 25 g/ha): 9 | herbicidal rating GALAP (Galium aparine; 100 g/ha): 9 | herbicidal rating GALAP (Galium aparine; 400 g/ha): 9 | control of Galium (Galium aparine; post-emergence, 12.5 g/ha): excellent control | herbicidal rating ECHCG (Echinochloa crus-galli [1]; 12.5 g/ha): 4 | herbicidal rating ECHCG (Echinochloa crus-galli [1]; 25 g/ha): 7 | herbicidal rating ECHCG (Echinochloa crus-galli [1]; 100 g/ha): 9 | herbicidal rating ECHCG (Echinochloa crus-galli [1]; 400 g/ha): 9 | herbicidal rating MATIN (Matricaria inodora [2]; 25 g/ha): 8 | herbicidal rating MATIN (Matricaria inodora [2]; 100 g/ha): 9 | herbicidal rating MATIN (Matricaria inodora [2]; 400 g/ha): 9 | control of Matricaria (Matricaria inodora [2]; post-emergence, 12.5 g/ha): excellent control | herbicidal rating MATIN (Matricaria inodora [3]; 12.5 g/ha): 8 | herbicidal rating MATIN (Matricaria inodora [3]; 25 g/ha): 8 | herbicidal rating MATIN (Matricaria inodora [3]; 100 g/ha): 9 | herbicidal rating MATIN (Matricaria inodora [3]; 400 g/ha): 9 | control of Matricaria (Matricaria inodora [3]; pre-emergence, 25 g/ha): good control | herbicidal rating ECHCG (Echinochloa crus-galli [4]; 25 g/ha): 5 | herbicidal rating ECHCG (Echinochloa crus-galli [4]; 100 g/ha): 9 | herbicidal rating ECHCG (Echinochloa crus-galli [4]; 400 g/ha): 9 | herbicidal rating STEME (Stellaria media; 12.5 g/ha): 6 | herbicidal rating STEME (Stellaria media; 25 g/ha): 8 | herbicidal rating STEME (Stellaria media; 100 g/ha): 9 | herbicidal rating STEME (Stellaria media; 400 g/ha): 9 | control of Stellaria (Stellaria media; pre-emergence, 25 g/ha): good control
